In ChEMBL document CHEMBL3301361, “Experimental in vitro DMPK and physicochemical data on a set of publicly disclosed compounds”:
Values after ≈ are worked out from the molar mass of the structure shown.

How the values were obtained:
in vitro [1] = settings: SD, HW or BN, rat, plasma
in vitro [2] = settings: human, hepatocytes
in vitro [3] = settings: Dunkin Hartley, guinea pig, plasma
in vitro [4] = settings: human, plasma
in vitro [5] = settings: human
physchem [6] = settings: octan-1-ol/water
in vitro [7] = settings: hepatocytes
physchem [8] = settings: pH 7.4 buffer
in vitro [9] = settings: Beagle, dog, plasma
physchem [10] = assay: physchem

| SMILES | fraction unbound at 5 h (in vitro [1]) | hepatocyte CLint (in vitro [2]) [µL/min/1e6 cells] | fraction unbound at 5 h (in vitro [3]) | fraction unbound at 5 h (in vitro [4]; PPB) | microsomal CLint (in vitro [5]; liver microsomes) [µL/min/mg] | logD (physchem [6]; pH 7.4, LogD7.4) | hepatocyte CLint (in vitro [7]) [µL/min/1e6 cells] | microsomal CLint (in vitro [5]; microsomes) [µL/min/mg] | logD (physchem [6]; pH 7.4) | solubility thermodynamic (physchem [8]) [µM] | fraction unbound at 5 h (in vitro [9]) | fraction unbound at 5 h (in vitro [4]) | pKa (physchem [10]) |
| --- | --- | --- | --- | --- | --- | --- | --- | --- | --- | --- | --- | --- | --- |
| Cc1nn(C2CCCCC2)c(N)c1-c1ccccc1 | 0.101 | 13.8 | 0.105 | 0.0447 | – | – | – | – | – | – | – | – | – |
| CCN(CCNCCc1ccc(O)c2[nH]c(=O)sc12)C(=O)CCOCCc1ccccc1 | – | – | 0.103 | 0.0544 | 82 | 1.92 | 135 | – | – | – | – | – | – |
| CCCN(CCNCCc1ccc(O)c2[nH]c(=O)sc12)C(=O)CCOCCc1ccccc1 | – | – | 0.11 | 0.0606 | > 150 | – | 107 | – | – | – | – | – | – |
| CC(C)N(CCNCCc1ccc(O)c2[nH]c(=O)sc12)C(=O)CCOCCc1ccccc1 | – | – | 0.0752 | 0.028 | – | 2.33 | 99 | 60 | – | – | – | – | – |
| CCCCN(CCNCCc1ccc(O)c2[nH]c(=O)sc12)C(=O)CCOCCc1ccccc1 | 0.0705 | 25.9 | 0.17 | 0.0532 | 141 | 3 | > 150 | – | – | – | – | – | – |
| O=c1[nH]c2c(O)ccc([C@@H](O)CNCCCSCCOCCc3cccc4ccccc34)c2s1 | 0.0082 | 14.8 | 0.0088 | 0.0067 | 70 | 3.12 | 85 | – | – | – | – | – | – |
| O=c1[nH]c2c(O)ccc([C@@H](O)CNCCCOCCNCCc3cccc(Cl)c3)c2s1 | – | – | 0.186 | – | < 3 | -0.03 | < 3 | – | – | – | – | – | – |
| N#Cc1ccc2c(c1)N(CCN1CCC(NCc3ccc4c(n3)NC(=O)CO4)CC1)C(=O)CO2 | – | – | 0.591 | – | – | – | 8.51 | – | 0.23 | – | – | – | – |
| Cc1cc(CCC[N+]23CCC(CC2)[C@@H](OC(=O)[C@](C)(c2ccccc2)N2CCCCC2)C3)ccn1 | – | – | 0.529 | – | – | – | 36.1 | – | – | – | – | – | – |
| C[C@@](C(=O)O[C@H]1C[N+]2(CCCc3ccc4ncsc4c3)CCC1CC2)(c1ccccc1)N1CCCCC1 | – | – | 0.244 | – | – | – | 66 | – | – | – | – | – | – |
| C[C@@](C(=O)O[C@H]1C[N+]2(CC(=O)Nc3ccccc3)CCC1CC2)(c1ccccc1)N1CCCCC1 | – | – | 0.0499 | – | – | – | 64 | – | – | – | – | – | – |
| C[C@@](C(=O)O[C@H]1C[N+]2(CCc3ccccc3)CCC1CC2)(c1ccccc1)N1CCCCC1 | 0.22 | – | 0.129 | – | – | – | 76 | – | – | – | – | – | – |
| C[C@@](C(=O)O[C@H]1C[N+]2(CCc3ccccc3F)CCC1CC2)(c1ccccc1)N1CCCCC1 | – | – | 0.194 | – | – | – | 130 | – | – | – | – | – | – |
| O=c1[nH]c2c(O)ccc([C@@H](O)CNCCc3cccc(CNCCc4ccccc4F)c3)c2s1 | 0.134 | < 3 | 0.107 | – | 17 | 1.06 | 22 | – | – | – | – | – | – |
| COc1ccccc1CCNCc1ccc(CCNC[C@H](O)c2ccc(O)c3[nH]c(=O)sc23)cc1 | 0.0606 | – | 0.0447 | 0.0447 | 25 | – | 29 | – | – | – | – | – | – |
| COc1cccc(CNCc2cccc(CCNC[C@H](O)c3ccc(O)c4[nH]c(=O)sc34)c2)c1 | 0.154 | – | 0.216 | 0.137 | 35 | 0.91 | – | – | – | – | – | – | – |
| COc1cccc2c1c(NS(=O)(=O)c1ccc(Cl)s1)nn2Cc1cccc(CNC(=O)C(C)(C)O)c1 | 0.0082 | 40 | 0.035 | 0.0133 | 50 | 2.09 | 25 | – | – | 81.3 (≈ 44.6 µg/mL) | – | – | – |

| SMILES | fraction unbound at 5 h (in vitro [1]) | hepatocyte CLint (in vitro [2]) [µL/min/1e6 cells] | fraction unbound at 5 h (in vitro [3]) | fraction unbound at 5 h (in vitro [4]; PPB) | microsomal CLint (in vitro [5]; liver microsomes) [µL/min/mg] | logD (physchem [6]; pH 7.4, LogD7.4) | hepatocyte CLint (in vitro [7]) [µL/min/1e6 cells] | microsomal CLint (in vitro [5]; microsomes) [µL/min/mg] | logD (physchem [6]; pH 7.4) | solubility thermodynamic (physchem [8]) [µM] | fraction unbound at 5 h (in vitro [9]) | fraction unbound at 5 h (in vitro [4]) | pKa (physchem [10]) |
| --- | --- | --- | --- | --- | --- | --- | --- | --- | --- | --- | --- | --- | --- |
| CNC(=O)CCCN(C)C(=O)c1ccc2c(c1)c1c(n2C)CC[C@@H](C2CCOCC2)C1 | 0.0146 | – | 0.329 | – | – | – | – | – | – | – | 0.258 | 0.0366 | – |
| O=C(N[C@@H]1COc2cccc(-c3ccc(CO)nc3)c2C1)c1ccc(OCC(F)(F)F)nc1 | 0.0752 | – | 0.11 | 0.0374 | – | – | – | – | – | – | 0.0477 | – | – |
| O=C1COc2c(CCNCCN(C(=O)CCNCCc3ccc(Cl)c(Cl)c3)C3CCCCC3)ccc(O)c2N1 | 0.0801 | – | 0.173 | 0.0313 | – | 2.23 | 22 | 38 | – | – | – | – | – |
| O=C(c1c[nH]c(=O)c2ccccc12)N1CCC(N2CCC(Oc3ccc(Cl)c(Cl)c3)CC2)CC1 | – | – | 0.17 | 0.089 | – | 3.51 | – | – | – | – | 0.0488 | – | – |
| CCCNC(c1cccnc1)P(=O)(c1ccccc1)c1ccccc1 (centres undefined) | 0.173 | – | 0.19 | – | – | – | – | – | – | – | 0.197 | – | – |
| CN(CCNCCc1ccc(O)c2[nH]c(=O)sc12)C(=O)CCOCCc1ccccc1 | 0.208 | – | 0.276 | 0.107 | 35 | – | 140 | – | – | – | – | – | – |
| C[C@H](Cc1cccc(CC(=O)NC23CC4CC(CC(C4)C2)C3)c1)NC[C@H](O)c1ccc(O)c(CO)c1 | 0.134 | 21.9 | 0.208 | – | 129 | 2.4 | 43 | – | – | – | – | – | – |
| O=C(CC1CCN(Cc2ccn(-c3ccc(C(F)(F)F)cn3)c2)CC1)NC(c1ccc(F)cc1)c1ccc(F)cc1 | 0.0033 | – | 0.013 | 0.0053 | – | – | – | – | – | – | 0.004 | – | – |
| CCN(Cc1cc(C(F)(F)F)ccc1-c1cc(CC(=O)O)ccc1OC)C(=O)NCc1ccccc1 [AM-211] | 0.0191 | – | 0.0256 | 0.0171 | – | – | 18.2 | 67.6 | – | 1380 (≈ 691 µg/mL) | 0.0039 | – | – |
| CN(C)N(C)C(=O)[C@@]1(Cc2ccccc2)CCCN(C(=O)[C@@H](Cc2c[nH]c3ccccc23)NC(=O)C(C)(C)N)C1 [ANAMORELIN] | 0.16 | 8.91 | 0.22 | – | – | 2.1 | – | – | – | – | 0.0633 | – | – |
| CN(C)c1nc(Cc2ccc(NC(=O)c3ccc(C(F)(F)F)cc3)cc2)nc(N(C)C)c1CC(=O)O [BI-671800] | 0.0025 | 4.47 | 0.0437 | 0.0039 | < 3 | 1.46 | 18.6 | – | – | 28.8 (≈ 14.4 µg/mL) | – | – | – |
| O=CNc1cc([C@@H](O)CNCCc2ccc(NC[C@H](O)c3ccccc3)cc2)ccc1O [MILVETEROL] | – | < 3 | 0.194 | 0.285 | – | 0.02 | – | – | – | – | – | – | – |
| Cc1nccn1CC1CCc2c(c3ccccc3n2C)C1=O (centres undefined) [ONDANSETRON] | – | < 3 | 0.635 | – | 6.46 | 1.67 | – | – | – | – | – | – | 7.73 |
| OCc1cc(C(O)CNCCCCCCOCCCCc2ccccc2)ccc1O (centres undefined) [SALMETEROL] | 0.0736 | – | 0.0477 | 0.0661 | 58 | – | 85 | – | – | – | 0.0179 | – | – |
| O=c1[nH]c2c(O)ccc(CCNCCS(=O)(=O)CCCOCCc3ccccc3)c2s1 [SIBENADET] | 0.0784 | – | 0.101 | 0.0556 | – | 2.61 | 91 | 111 | – | – | – | – | – |
| C[N+]1(C)[C@@H]2C[C@@H](OC(=O)C(O)(c3cccs3)c3cccs3)C[C@H]1[C@@H]1O[C@@H]12 [TIOTROPIUM] | – | – | 0.613 | – | – | – | – | – | -0.25 | – | 0.807 | – | – |
